Assay results as given in patent US9321760B2 (Merck Patent GmbH, priority 2011, dated 2016).
pIC50: −log10 of the molar value.

Each compound was assayed against P70S6K (T412E mutant) (Homo sapiens (Human), UniProt P23443, T412E) (assay: P70S6K enzyme assay). Settings: 3 nM P70S6K T412E mutant, 24 μM ATP, 1 μM FITC-AHA-AKRRRLSSLRA-OH substrate peptide, 90 min at 25° C.
Type: biochemical
Experimental: The IC50 values reported for the compounds in the Experimental section were derived from the following protocol for the p70S6K enzyme assay.
P70S6K inhibitor compounds were diluted and plated in 96 well plates. A reaction mixture including the following components was then added to the compound plate to initiate the enzyme reaction; P70S6K (3 nM, T412E mutant, Millipore) was mixed with 24 μM ATP in an assay buffer containing 100 mM Hepes (pH 7.5), 5 mM MgCl2, 1 mM DTT, 0.015% Brij and 1 μM of the substrate peptide FITC-AHA-AKRRRLSSLRA-OH (derived from the S6 ribosomal protein sequence, FITC=fluorescein isothiocyanate, AHA=6-aminohexanoic acid). The reaction was incubated for 90 min at 25° C., before the addition of 10 mM EDTA to stop the reaction. The proportion of substrate and product (phosphorylated) peptide was analysed on a Caliper Life Sciences Lab Chip 3000, using a pressure of −1.4 psi, and upstream and downstream voltages of −3000 and −700 respectively. Product peaks were resolved before substrate peaks on the resulting chromatograms.

Chain of P70S6K (T412E mutant) (P23443 whole entry T412E): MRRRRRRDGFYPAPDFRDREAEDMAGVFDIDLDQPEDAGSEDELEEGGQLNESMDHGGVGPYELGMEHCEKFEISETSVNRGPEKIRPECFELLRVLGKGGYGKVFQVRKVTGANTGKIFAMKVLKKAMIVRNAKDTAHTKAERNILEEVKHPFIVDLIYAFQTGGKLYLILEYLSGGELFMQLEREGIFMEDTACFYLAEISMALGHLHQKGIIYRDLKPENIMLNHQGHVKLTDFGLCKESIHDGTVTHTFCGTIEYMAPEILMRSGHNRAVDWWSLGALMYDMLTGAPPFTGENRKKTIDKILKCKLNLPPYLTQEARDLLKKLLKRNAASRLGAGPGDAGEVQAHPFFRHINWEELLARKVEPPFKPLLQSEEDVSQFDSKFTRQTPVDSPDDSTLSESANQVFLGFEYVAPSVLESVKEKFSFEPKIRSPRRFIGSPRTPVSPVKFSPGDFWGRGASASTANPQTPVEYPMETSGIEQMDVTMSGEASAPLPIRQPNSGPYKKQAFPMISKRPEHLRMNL

| Compound | pIC50 |
| --- | --- |
| N#Cc1ccc(C(CN2CCC2)N2CCN(c3ncnc(N)c3-c3ccc(F)cc3)CC2)cc1 (centres unmarked) [Example 106, 4-(1-{4-[6-Amino-5-(4-fluoro-phenyl)-pyrimidin-4-yl]-piperazin-1-yl}-2-azetidin-1-yl-ethyl)-benzonitrile] | 6.49 |
| Nc1ncnc(N2CCN(C(CN3CCC3)c3ccc(F)cc3Cl)CC2)c1-c1cn[nH]c1 (centres unmarked) [Example 137, 6-{4-[2-Azetidin-1-yl-1-(2-chloro-4-fluoro-phenyl)-ethyl]-piperazin-1-yl}-5-(1H-pyrazol-4-yl)-pyrimidin-4-ylamine] | 5.51 |
| Nc1cc(N2CCN(C(CN3CCCC3)c3cccc(C(F)(F)F)c3)CC2)ncn1 (centres unmarked) [Example 73, 6-{4-[1-(3-trifluoromethyl-phenyl)-2-pyrrolidin-1-yl-ethyl]-piperazin-1-yl}-pyrimidin-4-ylamine] | < 6.00 |
| Nc1ncnc(N2CCC(N)(CNC(=O)c3ccc(F)cc3F)C2)c1-c1ccc(N2CCNCC2)nc1 (centres unmarked) [Example 206, N-{3-Amino-1-[6-amino-5-(6-piperazin-1-yl-pyridin-3-yl)-pyrimidin-4-yl]-pyrrolidin-3-ylmethyl}-2,4-difluoro-benzamide] | 6.00 |
| Nc1ncnc(N2CCN(C(CN3CCCC3)c3ccc(C(F)(F)F)cc3)CC2)c1-c1ccc(F)cc1 (centres unmarked) [Example 10, 5-(4-fluorophenyl)-6-(4-(2-(pyrrolidin-1-yl)-1-(4-(trifluoromethyl)-phenyl)-ethyl)-piperazin-1-yl)-pyrimidin-4-amine] | 7.51 |
| CS(=O)(=O)c1ccc(C(C#N)N2CCN(c3ncnc(N)c3-c3cn[nH]c3)CC2)cc1 (centres unmarked) [Example 184, 2-(4-(6-amino-5-(1H-pyrazol-4-yl)pyrimidin-4-yl)piperazin-1-yl)-2-(4-(methylsulfonyl)phenyl)acetonitrile] | < 6.00 |
| CS(=O)(=O)c1ccc(C(CN2CCC2)N2CCN(c3ncnc(N)c3-c3ccc(F)cc3)CC2)cc1 (centres unmarked) [Example 128, 6-{4-[2-Azetidin-1-yl-1-(4-methanesulfonyl-phenyl)-ethyl]-piperazin-1-yl}-5-(4-fluoro-phenyl)-pyrimidin-4-ylamine] | 6.55 |
| N#CC(c1ccc(C(F)(F)F)cc1)N1CCN(c2ncnc(N)c2Br)CC1 (centres unmarked) [Example 167, [4-(6-Amino-5-bromo-pyrimidin-4-yl)-piperazin-1-yl]-(4-trifluoromethyl-phenyl)-acetonitrile] | < 6.00 |
| COC(=O)c1ccc([C@@H](CN2CCC2)N2CCN(c3ncnc(N)c3-c3ccc(F)cc3)CC2)cc1 [Example 110, 4-((S)-1-{4-[6-Amino-5-(4-fluoro-phenyl)-pyrimidin-4-yl]-piperazin-1-yl}-2-azetidin-1-yl-ethyl)-benzoic acid methyl ester] | 6.35 |

More lines, now with the values ahead:

| pIC50 | Compound |
| --- | --- |
| 7.34 | Nc1ncnc(N2CCC(N)(CNC(=O)c3ccc(F)cc3F)CC2)c1-c1ccc(F)cc1 [Example 208, N-{4-Amino-1-[6-amino-5-(4-fluoro-phenyl)-pyrimidin-4-yl]-piperidin-4-ylmethyl}-2,4-difluoro-benzamide] |
| 8.39 | NCC(c1cccc(F)c1)N1CCN(c2ncnc(N)c2-c2ccc(F)cc2)CC1 (centres unmarked) [Example 169, 6-{4-[2-Amino-1-(3-fluoro-phenyl)-ethyl]-piperazin-1-yl}-5-(4-fluoro-phenyl)-pyrimidin-4-ylamine] |
| 8.89 | NCC(c1ccc(Cl)cc1)N1CCN(c2ncnc(N)c2-c2ccc(F)cc2)CC1 (centres unmarked) [Example 163, 6-{4-[2-Amino-1-(4-chloro-phenyl)-ethyl]-piperazin-1-yl}-5-(4-fluoro-phenyl)-pyrimidin-4-ylamine] |
| 8.77 | CN(C)C[C@@H](c1ccc(C(F)(F)F)cc1)N1CCN(c2ncnc(N)c2-c2ccc(F)cc2)CC1 [Example 17, (R)-6-(4-(2-(dimethylamino)-1-(4-(trifluoromethyl)phenyl)ethyl)piperazin-1-yl)-5-(4-fluorophenyl)pyrimidin-4-amine] |
| 8.28 | Nc1ncnc(N2CCC(N)(CNC(=O)c3ccc(F)cc3F)C2)c1-c1ccccc1 (centres unmarked) [Example 203, N-[3-Amino-1-(6-amino-5-phenyl-pyrimidin-4-yl)-pyrrolidin-3-ylmethyl]-2,4-difluoro-benzamide] |
